This note sets out measurements from PubChem BioAssay (NCI).

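Cultured in 96-well plates, cells were exposed to test compound for 48 hours across five concentrations. At the GI50, growth is halved. TGI is the concentration that stops growth completely.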 Some results are limits rather than exact numbers.

Holding throughout (assay): NCI-60 cell line screen, 48 h
Assay [1] deals with M19-MEL melanoma.
Assay [2] concerns OVCAR-8 ovarian.
The test system of assay [3] is SN12C renal.
Assay [4] deals with A549 NSCLC.
Assay [5] deals with SK-OV-3 ovarian.
Assay [6] deals with SK-MEL-2 melanoma.
In assay [7] the test system is OVCAR-5 ovarian.
For assay [8], the system named is NCI-H522 lung.
In assay [9] the test system is LOX IMVI melanoma.
Assay [10] has as its system SNB-78 CNS.

Regarding `CC(=O)OC1CCC2(C)C3CCC4(C)C(c5ccc(=O)oc5)CC5OC54C3CCC2(O)C1` (stereo unspecified), the TGI in assay [1] amounted to 11.8 µM; in [2] it was 7.73 µM; in assay [3] it was 34.2 µM; in assay [4], 2.15 µM; in [5], 10.2 µM; in assay [6] it was 13 µM. Further, the TGI in assay [7] came out at 22.4 µM; in assay [8], 2.04 µM; in [9], 16.5 µM; in assay [10] it was 12 µM.
With `CC(=O)Oc1cccc2c(/C=N/NC(N)=S)ncc(C)c12`, the TGI was > 34.9 µM in assay [2]; 17.1 µM in [3]; 25.6 µM in [4]; 17.1 µM in assay [5]; 25.3 µM in [6]; 22 µM in [7]. Moreover, the TGI stood at 32.5 µM in assay [8] and 8.98 µM in [9].
Turning to `CC1CC=CC(O)C1` (stereo unspecified), the TGI in assay [1], in [2], in assay [3], in assay [4], in assay [5] and in [6] was > 100 µM throughout. The TGI in assay [7], in assay [8], in assay [9] and in assay [10] was > 100 µM in each case.
Consider `NC(CCCCP(=O)(O)O)C(=O)O` (stereo unspecified), for which the TGI in assay [2], in assay [3], in assay [4], in assay [5], in [6] and in assay [7] was > 100 µM each time. Also, the TGI in assay [8] and in [9] was > 100 µM each time.
`CCC[CH2][Ge]([CH2]CCC)([CH2]CCC)[O]C(=O)CC(=O)c1ccccc1`: the GI50 is 3.83 µM in assay [1]; 1.65 µM in assay [2]; 0.538 µM in assay [3]; 0.735 µM in [4]; 0.667 µM in assay [5]; 2.22 µM in assay [6]. Besides, the values for the GI50 in [7], in [8] and in [9] were 2.17 µM, 0.261 µM and 0.313 µM, respectively. The TGI is 19.3 µM in assay [1]; 18.3 µM in assay [2]; 15 µM in [3]; 15.9 µM in assay [4]; 14 µM in assay [5]; 17.9 µM in assay [6]. The TGI in assay [7] was found to be 14.9 µM; in assay [8], 10.4 µM; in [9] it was 1.72 µM.
Take `NNC(N)Nc1ccccc1` (stereo unspecified): the TGI in assay [2], in assay [3], in [4], in assay [5], in assay [6] and in [7] was > 100 µM in each case. For the same compound, the TGI in assay [8] was > 100 µM.
In the case of `NCCCNc1nc2ccccc2c2c(=O)c3cc(OC(F)(F)F)ccc3sc12`, the GI50 in assay [2] was 2.01 µM; in assay [3], 1.66 µM; in assay [6], 1.93 µM; in assay [7], 1.64 µM. Also, the TGI turned out to be 4.77 µM in assay [2], 3.14 µM in assay [3], 3.72 µM in [6] and 3.07 µM in assay [7].
Take `C=CC(Br)(CBr)CCC(Cl)C(C)C` (stereo unspecified): the TGI in assay [3] turned out to be 3.19 µM; in [4], 18 µM; in assay [5], 18.6 µM; in assay [6], 3.92 µM; in assay [7] it was 5.03 µM; in assay [8], 2.8 µM. In addition, the TGI in assay [9] came to 2.46 µM.
`COc1ccccc1C1C(C(=O)O)=C(CO)Oc2cc3c(cc21)OCO3` (stereo unspecified): the TGI in assay [1], in assay [2], in [3], in [5], in [6] and in assay [8] was > 100 µM throughout. Further, the TGI in [9] and in assay [10] was > 100 µM each time.
Turning to `Cc1ccc(S(=O)(=O)Oc2cc(-c3ccccc3)nc3ccccc23)cc1`, the TGI in [1] was 40.6 µM; in assay [2] it was > 77.6 µM; in assay [3], > 41.5 µM; in [4], > 78.4 µM; in [5] it was 5.23 µM; in assay [6], 17 µM. The TGI was 62 µM in assay [7], 3.7 µM in assay [8], > 78.5 µM in assay [9] and 50.6 µM in assay [10].
`Cc1cc(=O)[nH]c(NN2C(Cl)C(=O)C2c2cccc(O)c2)n1` (stereo unspecified): the TGI in assay [1], in assay [2], in [3], in assay [4], in assay [6] and in assay [7] was > 100 µM throughout. For the same compound, the TGI in [9] and in assay [10] was > 100 µM in each case.
For `O=C(OC(=O)n1ccc2ccccc21)n1ccc2ccccc21`, the TGI in assay [1], in [2], in assay [3], in assay [4], in [5] and in [6] was > 100 µM each time. Moreover, the TGI in assay [7], in assay [9] and in assay [10] was > 100 µM in each case.
